Data: US20240197900A1, “DISACCHARIDE LINKER, DISACCHARIDE-SMALL MOLECULE DRUG CONJUGATE AND SUGAR CHAIN FIXED-POINT ANTIBODY-DRUG CONJUGATE, AND PREPARATION METHOD THEREFOR AND USE THEREOF” (priority 2021, published 2024)

Target: Endo-S2 (Streptococcus pyogenes serotype M49, UniProt T1WGN1)
Test: Screening of sugar substrates: transfer of oxazoline substrates to deglycosylated antibody by Endo-S2
Assay type: biochemical
Conditions: substrate 1.5 mM, (Fuc α1,6)GlcNAc-Herceptin 5 mg/mL, Endo-S2 0.2 mg/mL, 3 h; for recognition by / transfer activity of Endo-S2 (in words): 30° C., FIG. 1B
Description: Different sugar substrates (1 equivalent, including monosaccharide, disaccharide and trisaccharide structures) were weighed and dissolved in 50 mM PB, pH 7.0 buffer, CDMBI (5 equivalents) was added to the above system, mixed well and cooled to 0° C. Potassium phosphate (15 eq) was added, the final concentration of the sugar substrates in the reaction system was 10 mM, and the reaction was carried out at 0° C. for 2 h. Plenty of precipitate was observed, which was removed by centrifugation. The supernatant was oxazoline substrates G1, G12, G15-G20 containing salts, which were directly used for the next step of screening.
Oxazoline substrates (G1, G12, G15-G20), deglycosylated antibody (Fuc α1.6) GlcNAc-Herceptin and endoglycosidase Endo-S2 were sequentially added to 50 mM Tris-HCl, pH 7.2 buffer, such that the final concentrations of each were 1.5 mM, 5 mg/mL, and 0.2 mg/mL, respectively, which was incubated at 30° C. for 3 h for detection by mass spectrometry. At the same time, a control group without endoglycosidase was set to eliminate the influence of non-enzymatic reactions.

Chain of Endo-S2 (T1WGN1 37-843): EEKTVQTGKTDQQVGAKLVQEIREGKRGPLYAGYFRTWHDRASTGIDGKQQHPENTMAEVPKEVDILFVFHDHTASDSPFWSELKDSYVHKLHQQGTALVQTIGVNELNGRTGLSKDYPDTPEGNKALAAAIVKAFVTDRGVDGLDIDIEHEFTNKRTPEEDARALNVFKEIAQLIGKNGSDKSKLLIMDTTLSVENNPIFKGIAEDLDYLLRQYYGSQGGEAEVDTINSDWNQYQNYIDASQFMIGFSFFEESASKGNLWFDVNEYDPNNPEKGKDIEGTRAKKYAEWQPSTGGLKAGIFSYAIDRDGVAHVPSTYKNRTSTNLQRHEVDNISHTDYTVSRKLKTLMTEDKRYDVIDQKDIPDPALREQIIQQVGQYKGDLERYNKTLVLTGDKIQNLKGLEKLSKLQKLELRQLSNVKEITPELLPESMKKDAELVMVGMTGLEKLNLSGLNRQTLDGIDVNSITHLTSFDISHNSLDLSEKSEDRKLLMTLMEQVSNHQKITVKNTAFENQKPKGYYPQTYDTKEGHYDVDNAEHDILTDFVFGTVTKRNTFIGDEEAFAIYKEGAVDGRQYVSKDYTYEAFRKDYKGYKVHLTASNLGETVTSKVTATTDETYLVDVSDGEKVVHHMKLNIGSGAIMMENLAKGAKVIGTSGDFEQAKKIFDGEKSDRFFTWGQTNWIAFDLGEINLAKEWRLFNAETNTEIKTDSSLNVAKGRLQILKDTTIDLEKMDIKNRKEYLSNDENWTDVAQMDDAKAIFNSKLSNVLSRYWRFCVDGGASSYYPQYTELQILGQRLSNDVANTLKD

Structure (SMILES) | transfer efficiency to the deglycosylated antibody (Tris-HCl pH 7.2, 30° C., mass spectrometry) | recognition by / transfer activity of Endo-S2 (in words)
CC1=NC2[C@@H](O1)OC(CO)[C@@H](O[C@@H]1OC(CO)[C@H](O)[C@H](O)C1O)[C@@H]2O (stereo partly drawn) [G1] | 68% | –
CC(=O)N[C@H]1C([C@H](O)[C@H](O)CO)O[C@@](OCC2O[C@@H](O[C@@H]3C(CO)O[C@@H]4OC(C)=NC4[C@H]3O)C(O)[C@@H](O)[C@H]2O)(C(=O)O)C[C@H]1O (stereo partly drawn) [G12] | – | well recognized
CC1=NC2C(O[C@@H]3OC(C)[C@@H](O)C(O)C3O)[C@H](O[C@@H]3OC(CO)[C@H](O)C(O)C3O)C(CO)O[C@@H]2O1 (stereo partly drawn) [G20] | – | greatly reduced
